Measured values taken from PubChem BioAssay AID1963853 (Molecular Pharmacology Branch, DTP, NCI, 2024).

Test system: 266295-075-R-J1-PDC spheroid viability
Test: Anticancer human tumor 266295-075-R-J1-PDC patient-derived head and neck squamous carcinoma cell line growth inhibition [POLQ]
Conditions: spheroids with HUVEC and MSC; for IC50: curve of first compound; for viability, T/C: stronger effect = lower value
Description: Multicellular complex tumor spheroid response to Polymerase (POL) inhibitors (novobiocin, ART-558, RP6685) in combination with a variety of drugs and investigational agents in selected tumor cell lines
The POL inhibitors (novobiocin, ART-558, and RP6685) were evaluated both individually and in combination with standard of care and investigational anticancer small molecules within a complex spheroid model of solid tumors. . Complex spheroids include a stromal component modeled by human endothelial cells (HUVEC) and fibroblasts modeled by human mesenchymal stem cells (MSCs). The concentration ranges selected for each drug and investigational agent were based upon clinically achievable concentrations if the clinical Cmax of the agent was known.
Compounds. The drugs and investigational agents: novobiocin (NSC847541), ART-558 (NSC835418), RP-6685 (NSC848927), peposertib (NSC802822), ceralasertib (NSC780249), elimusertib (NSC800525), camonsertib (NSC841442), AZD-1390 (NSC803789), olaparib (NSC753686), talazoparib (NSC767125), rucaparib (NSC756644), sotorasib (NSC818433), MRTX-1133 (NSC836407), SN-38 (NSC673596), topotecan (NSC609699), epotoside (NSC141540), doxorubicin (NSC123127), gemcitabine (NSC613327), 5-fluorouracil (NSC19893), paclitaxel (NSC125973), vemurafenib (NSC761431), MSA-2 (NSC828583), SN-011 (NSC837082), adavosertib (NSC754352), prexasertib (NSC758257), carboplatin (NSC241240) and oxaliplatin (NSC266046), were obtained from the National Cancer Institute (NCI) Developmental Therapeutics Program Chemical Repository (21). The FDA-approved anticancer drug set is available from the Developmental Therapeutics Program at https://dtp.cancer.gov/organization/dscb/obtaining/. […] The stock solutions were prepared in dimethyl sulfoxide (DMSO, Sigma-Aldrich, St. Louis, MO, cat. D2650), except for the platinum compounds which were prepared in saline (Quality Biological, Gaithersburg, MD, cat. 114-055-101), at 800-fold the tested concentration and stored at -70 degrees C prior to their use. All drugs and investigational agents were tested over a range starting from a high concentration at or near the clinical Cmax and decreasing in half-log increments. If the clinical Cmax for an agent had not been determined, the highest concentration tested was 10 microM, except for SN-38, which was tested at a high concentration of 1 microM.
Cell Culture. All cells were maintained in an incubator at 37 degrees C and 5% CO2 with 95% humidity. The PDC lines were cultured according to standard operating procedures established by the NCI PDMR (https://pdmr.cancer.gov). Table 3 of the manuscript, lists the cell lines along with the number of the three cell types plated to form the mct-spheroids and media for tumor cell growth. After thawing, all PDC lines, except 997537-175-T-J1-PDC and 415267-285-R-J2-PDC, were cultured in Matrigel-coated flasks prepared with a working solution of 1X Ham's F-12 nutrient mix, without supplementation (Thermo Fisher Scientific, cat. 11765054), 100 U/mL penicillin-streptomycin (Thermo Fisher Scientific, cat. 15140122), and 2.5% Matrigel (Corning Inc., Corning, NY, cat. 354248) for the first three passages. The two PDC lines 997537-175-T-J1-PDC and 415267-285-R-J2-PDC were cultured on uncoated flasks. The 857933-349-R-J2-PDC line was cultured in 6C/Colon 1B media containing advanced DMEM/F-12 (Thermo Fisher Scientific, cat. 12634028), 10 mM HEPES (Thermo Fisher Scientific, cat. 15630080), 1X GlutaMAX supplement (Thermo Fisher Scientific, cat. 35050061), 0.1 mg/mL primocin (InvivoGen, San Diego, CA, cat. ant-pm-2), 10% defined fetal bovine serum, heat inactivated (HyClone Laboratories Inc., Logan, UT, cat. SH30070.03HI), 50% L-WRN conditioned media (ATCC, cat. CRL-3276), 1.25 mM N-Acetyl-L-cysteine (Sigma-Aldrich, cat. A9165), 10 mM nicotinamide (Sigma-Aldrich, cat. N0636), 1X B-27 supplement (Thermo Fisher Scientific, cat. 17504044), 1X N-2 supplement (Thermo Fisher Scientific, cat. […]
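Further: spheroids exposed to compounds for seven days before readout.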

SMILES: COc1cccc(OCCCN)c1-c1cc(Nc2cnc(C#N)cn2)n[nH]1 + COC1C(OC(N)=O)C(O)C(Oc2ccc3c(O)c(NC(=O)c4ccc(O)c(CC=C(C)C)c4)c(=O)oc3c2C)OC1(C)C
- IC50 (second compound 0.0316 µM): > 1000 nM
- IC50 (second compound 0.1 µM): > 1000 nM
- IC50 (second compound 0.316 µM): > 1000 nM
- IC50 (second compound 1 µM): > 1000 nM
- IC50 (second compound 3.16 µM): > 1000 nM
- IC50 (second compound 10 µM): > 1000 nM
- viability, T/C (second compound 0.0316 µM, first compound 0.00316 µM): 87.7%
- viability, T/C (second compound 0.0316 µM, first compound 0.01 µM): 81.7%
- viability, T/C (second compound 0.0316 µM, first compound 0.0316 µM): 71.1%
- viability, T/C (second compound 0.0316 µM, first compound 0.1 µM): 64.2%
- viability, T/C (second compound 0.0316 µM, first compound 0.316 µM): 67.1%
- viability, T/C (second compound 0.0316 µM, first compound 1 µM): 71.7%
- viability, T/C (second compound 0.1 µM, first compound 0.00316 µM): 109%
- viability, T/C (second compound 0.1 µM, first compound 0.01 µM): 89.8%
- viability, T/C (second compound 0.1 µM, first compound 0.0316 µM): 84%
- viability, T/C (second compound 0.1 µM, first compound 0.1 µM): 68.7%
- viability, T/C (second compound 0.1 µM, first compound 0.316 µM): 65.6%
- viability, T/C (second compound 0.1 µM, first compound 1 µM): 75.6%
- viability, T/C (second compound 0.316 µM, first compound 0.00316 µM): 88.8%
- viability, T/C (second compound 0.316 µM, first compound 0.01 µM): 85.4%
- viability, T/C (second compound 0.316 µM, first compound 0.0316 µM): 78.6%
- viability, T/C (second compound 0.316 µM, first compound 0.1 µM): 70.6%
- viability, T/C (second compound 0.316 µM, first compound 0.316 µM): 81.1%
- viability, T/C (second compound 0.316 µM, first compound 1 µM): 70%
- viability, T/C (second compound 1 µM, first compound 0.00316 µM): 96.7%
- viability, T/C (second compound 1 µM, first compound 0.01 µM): 89.8%
- viability, T/C (second compound 1 µM, first compound 0.0316 µM): 76.4%
- viability, T/C (second compound 1 µM, first compound 0.1 µM): 66.1%
- viability, T/C (second compound 1 µM, first compound 0.316 µM): 72%
- viability, T/C (second compound 1 µM, first compound 1 µM): 69.1%
- viability, T/C (second compound 3.16 µM, first compound 0.00316 µM): 92.3%
- viability, T/C (second compound 3.16 µM, first compound 0.01 µM): 96.7%
- viability, T/C (second compound 3.16 µM, first compound 0.0316 µM): 78.6%
- viability, T/C (second compound 3.16 µM, first compound 0.1 µM): 74.3%
- viability, T/C (second compound 3.16 µM, first compound 0.316 µM): 78.3%
- viability, T/C (second compound 3.16 µM, first compound 1 µM): 76.1%
- viability, T/C (second compound 10 µM, first compound 0.00316 µM): 87.6%
- viability, T/C (second compound 10 µM, first compound 0.01 µM): 90.9%
- viability, T/C (second compound 10 µM, first compound 0.0316 µM): 70.4%
- viability, T/C (second compound 10 µM, first compound 0.1 µM): 65.1%
- viability, T/C (second compound 10 µM, first compound 0.316 µM): 66.5%
- viability, T/C (second compound 10 µM, first compound 1 µM): 69.6%
